Paper PMC12775434, “Ultra-large virtual screening unveils potent agonists of the neuromodulatory orphan receptor GPR139” (Nature Communications, 2025)
“And” between values parts separate entries of the source, which are not always exact repeats. Equal values may be shown once. Read-outs that look alike come from different tables or passages of the source.

Molecular target: T1, GPR139 (Homo sapiens, UniProt Q6DWJ6)
T1 sequence (Q6DWJ6 1-353): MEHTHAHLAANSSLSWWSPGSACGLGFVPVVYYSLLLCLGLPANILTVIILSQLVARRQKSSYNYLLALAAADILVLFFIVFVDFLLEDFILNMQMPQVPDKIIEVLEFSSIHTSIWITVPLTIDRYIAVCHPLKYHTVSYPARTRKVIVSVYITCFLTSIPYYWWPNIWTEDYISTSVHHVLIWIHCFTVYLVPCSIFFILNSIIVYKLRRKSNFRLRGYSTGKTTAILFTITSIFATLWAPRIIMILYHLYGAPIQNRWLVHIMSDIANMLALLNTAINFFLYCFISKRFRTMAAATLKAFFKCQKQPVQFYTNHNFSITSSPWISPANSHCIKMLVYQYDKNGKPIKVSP
Assay: Inositol monophosphate (IP1) accumulation assay, GPR139-CHOk1
Type: cell-based
Conditions: for Emax: normalized to Lundbeck Cmp 1a, read-out: Emax (%) IP1
Method: Primary screening and pharmacological characterization of compounds were performed using a CHO-K1 cell line that stably expresses human GPR139 (GPR139-CHOk1). The GPR139-CHOk1 cell line was kindly provided by H. Lundbeck A/S, Denmark[24]. GPR139-CHOk1 cells were grown in Ham’s F-12 Kaighn’s Modification Medium (ThermoFisher #21127030) supplemented with 10% dialyzed fetal bovine serum (US origin, ThermoFisher #26400044), 100 units/mL Penicillin-Streptomycin (ThermoFisher #15140122), and 1 mg/mL Geneticin (ThermoFisher #11811031). […] M1R-CHOk1 cells were purchased from The Missouri S&T cDNA Resource Center (#CEM100TN00). M1R-CHOk1 cells were grown in Ham’s F12 Medium (ThermoFisher #21765029) supplemented with 10% fetal bovine serum (Brazilian origin, ThermoFisher #10270106), 100 units/mL Penicillin-Streptomycin, and 0.25 mg/mL Geneticin. HEK293A cells transiently transfected with GPR139 were used for additional pharmacological assessment of signaling pathways activated by GPR139. HEK239A cells were generously provided by Dr. Asuka Inoue, Tohoku University, Japan. HEK293A cells were grown in Dulbecco’s Modified Eagle Medium (ThermoFisher #31966047) supplemented with 10% dialyzed fetal bovine serum and 100 units/mL Penicillin-Streptomycin. Cell lines were maintained at 37 °C in humidified incubator equilibrated with 5% CO2.
HTRF IP-One Gq kit (Cisbio #62IPAPEC) was used to detect the accumulation of inositol monophosphate (IP1) as described in the work by Shehata et al.[26]. GPR139-CHOk1 cells were dissociated and resuspended in HEPES buffer. 50,000 cells in 5 µL and 5 µL test compounds diluted from DMSO stocks (final DMSO concentration of maximally 0.3%) in HEPES buffer supplemented with 40 mM LiCl were mixed in each well of white 384-well OptiPlate (PerkinElmer #6007290). The cells were incubated for 1 h at 37 °C. Then, 10 µL detection reagent composed of 2.5% Eu3 + -anti-IP1 antibody and 2.5% IP1-d2 diluted in lysis buffer was added, and the cells were incubated for 1 h at room temperature before measurements. Measurements were performed on EnVision Multimode Plate Reader (PerkinElmer) using excitation light of 340 nm and emission light of 615 nm and 665 nm. The time resolved-fluorescence resonance energy transfer (TR-FRET) 665 nm/615 nm ratio, which is inversely proportional to the IP1 accumulation, was used to determine the IP1 response.
Pharmacological data and statistical analyses were performed in GraphPad Prism v9–10 (Graphpad Software Inc., San Diego, CA), which are also specifically described in the figure and table legends. The functional assay responses were normalized to buffer (0%) and Lundbeck Cmp 1a or JNJ-63533054 (100%), for Ca^2+ and IP1 experiments in the GPR139-CHOk1 stable cell line or Ca^2+, G protein activation, and arrestin-3 recruitment experiments in the HEK293A cells transiently transfected with GPR139, respectively. Data are from at least three independent experiments, unless stated otherwise. Concentration-response curves were fitted applying non-linear regression using the log (agonist) versus response model with variable slope. ANOVA was applied for comparing results and determining statistical significance. Comparison of responses to the reference was performed using one-way ANOVA with Dunnett’s multiple comparisons test at significance threshold of p < 0.05. Comparison of responses across assays and ligands was performed using two-way ANOVA with Tukey’s multiple comparisons test at a significance threshold of p < 0.05.

[1] = Supplementary Table 2, mean ± SEM, read-out: pEC50 IP1 (converted)
[2] = log [Compound] M -4.5, replicate experiments
[3] = log [Compound] M -5.0, replicate experiments
[4] = log [Compound] M -5.5, replicate experiments
[5] = log [Compound] M -6.0, replicate experiments
[6] = log [Compound] M -6.5, replicate experiments
[7] = log [Compound] M -7.0, replicate experiments
[8] = log [Compound] M -7.5, replicate experiments
[9] = log [Compound] M -8.0, replicate experiments
[10] = log [compound] M -4.5, individual replicates
[11] = log [compound] M -5.0, individual replicates
[12] = log [compound] M -5.5, individual replicates
[13] = log [compound] M -6.0, individual replicates
[14] = log [compound] M -6.5, individual replicates
[15] = log [compound] M -7.0, individual replicates
[16] = log [compound] M -7.5, individual replicates
[17] = log [compound] M -8.0, individual replicates

EC50 [1] [µM] | Emax (Supplementary Table 2) [%] | EC50 (GPR139-CHOk1, read-out: EC50, IP1 accumulation) [µM] | SMILES | IP1 response (% of Cmp 1a) [2] | IP1 response (% of Cmp 1a) [3] | IP1 response (% of Cmp 1a) [4] | IP1 response (% of Cmp 1a) [5] | IP1 response (% of Cmp 1a) [6] | IP1 response (% of Cmp 1a) [7] | IP1 response (% of Cmp 1a) [8] | IP1 response (% of Cmp 1a) [9] | IP1 response (% of Cmp 1a) [10] | IP1 response (% of Cmp 1a) [11] | IP1 response (% of Cmp 1a) [12] | IP1 response (% of Cmp 1a) [13] | IP1 response (% of Cmp 1a) [14] | IP1 response (% of Cmp 1a) [15] | IP1 response (% of Cmp 1a) [16] | IP1 response (% of Cmp 1a) [17]
1.58 | 85 ± 8 | – | COC(=O)c1cc(NC(=O)NC(C)c2cccc(F)c2F)ccc1C (centres unmarked) [Compound 2, COC(=O)C=1C=C(NC(=O)NC(C)C=2C=CC=C(F)C2F)C=CC1C] | 75 % of Cmp 1a and 55 % of Cmp 1a and 76 % of Cmp 1a and 90 % of Cmp 1a | 64 % of Cmp 1a and 44 % of Cmp 1a and 66 % of Cmp 1a and 76 % of Cmp 1a | 50 % of Cmp 1a and 41 % of Cmp 1a and 46 % of Cmp 1a and 65 % of Cmp 1a | 34 % of Cmp 1a and 26 % of Cmp 1a and 28 % of Cmp 1a and 41 % of Cmp 1a | 18 % of Cmp 1a and 16 % of Cmp 1a and 10 % of Cmp 1a and 22 % of Cmp 1a | 8 % of Cmp 1a (2×) and 5 % of Cmp 1a and 3.81 % of Cmp 1a | 6.59 % of Cmp 1a and -1 % of Cmp 1a and 0.549 % of Cmp 1a and 2.33 % of Cmp 1a | 1.89 % of Cmp 1a and -0.926 % of Cmp 1a and 0.158 % of Cmp 1a and 0.886 % of Cmp 1a | – | – | – | – | – | – | – | –
0.501 | 100 ± 9 | – | COc1ccccc1-c1nc(CC(=O)NC(C)c2ccccc2)no1 (centres unmarked) [Compound 1.2, COC1=C(C2=NC(CC(NC(C3=CC=CC=C3)C)=O)=NO2)C=CC=C1] | – | – | – | – | – | – | – | – | 124 % of Cmp 1a and 88 % of Cmp 1a and 75 % of Cmp 1a and 93 % of Cmp 1a | 116 % of Cmp 1a and 87 % of Cmp 1a and 73 % of Cmp 1a and 117 % of Cmp 1a | 100 % of Cmp 1a and 64 % of Cmp 1a and 57 % of Cmp 1a and 96 % of Cmp 1a | 93 % of Cmp 1a and 47 % of Cmp 1a (2×) and 64 % of Cmp 1a | 57 % of Cmp 1a and 45 % of Cmp 1a and 31 % of Cmp 1a and 51 % of Cmp 1a | 15 % of Cmp 1a and 18 % of Cmp 1a and 6 % of Cmp 1a and 14 % of Cmp 1a | 15 % of Cmp 1a and 11 % of Cmp 1a and -2 % of Cmp 1a and 7.38 % of Cmp 1a | 2 % of Cmp 1a and -5.58 % of Cmp 1a and -11 % of Cmp 1a and 6.5 % of Cmp 1a
– | 91 ± 10 | 0.05 | Cc1cscc1-c1nc(CC(=O)NC(C)c2ccccc2)no1 (centres unmarked) [Compound 1.1, CC(C1=CC=CC=C1)NC(CC2=NOC(C3=CSC=C3C)=N2)=O] | 92 % of Cmp 1a and 58 % of Cmp 1a and 83 % of Cmp 1a and 87 % of Cmp 1a | 112 % of Cmp 1a and 74 % of Cmp 1a and 80 % of Cmp 1a and 115 % of Cmp 1a | 111 % of Cmp 1a and 87 % of Cmp 1a and 96 % of Cmp 1a and 100 % of Cmp 1a | 125 % of Cmp 1a and 85 % of Cmp 1a and 89 % of Cmp 1a | 112 % of Cmp 1a and 76 % of Cmp 1a (2×) and 95 % of Cmp 1a | 71 % of Cmp 1a and 56 % of Cmp 1a and 38 % of Cmp 1a and 67 % of Cmp 1a | 56 % of Cmp 1a and 27 % of Cmp 1a and 28 % of Cmp 1a and 45 % of Cmp 1a | 22 % of Cmp 1a and 5 % of Cmp 1a and -0.544 % of Cmp 1a and 16 % of Cmp 1a | 92 % of Cmp 1a and 58 % of Cmp 1a and 83 % of Cmp 1a and 87 % of Cmp 1a | 112 % of Cmp 1a and 74 % of Cmp 1a and 80 % of Cmp 1a and 115 % of Cmp 1a | 111 % of Cmp 1a and 87 % of Cmp 1a and 96 % of Cmp 1a and 100 % of Cmp 1a | 125 % of Cmp 1a and 85 % of Cmp 1a and 89 % of Cmp 1a | 112 % of Cmp 1a and 76 % of Cmp 1a (2×) and 95 % of Cmp 1a | 71 % of Cmp 1a and 56 % of Cmp 1a and 38 % of Cmp 1a and 67 % of Cmp 1a | 56 % of Cmp 1a and 27 % of Cmp 1a and 28 % of Cmp 1a and 45 % of Cmp 1a | 22 % of Cmp 1a and 5 % of Cmp 1a and -0.544 % of Cmp 1a and 16 % of Cmp 1a
